Measured values taken from US8222416B2, “Azaindole glucokinase activators” (Hoffmann-La Roche Inc., priority 2009, dated 2012).

molecular target: T1, Recombinant human liver GK1 (GST-GK) (Homo sapiens, UniProt P35557); assay: In vitro glucokinase activity assay (G6PDH-coupled, NADH, OD340); assay type: biochemical; details: concentration of activator that produced a 50% increase in the activity of GK; 5 mM D-glucose, 30° C.
T1 construct: made in house; host or cells: E. coli
T1 sequence (P35557 1-466 isoform P35557-2): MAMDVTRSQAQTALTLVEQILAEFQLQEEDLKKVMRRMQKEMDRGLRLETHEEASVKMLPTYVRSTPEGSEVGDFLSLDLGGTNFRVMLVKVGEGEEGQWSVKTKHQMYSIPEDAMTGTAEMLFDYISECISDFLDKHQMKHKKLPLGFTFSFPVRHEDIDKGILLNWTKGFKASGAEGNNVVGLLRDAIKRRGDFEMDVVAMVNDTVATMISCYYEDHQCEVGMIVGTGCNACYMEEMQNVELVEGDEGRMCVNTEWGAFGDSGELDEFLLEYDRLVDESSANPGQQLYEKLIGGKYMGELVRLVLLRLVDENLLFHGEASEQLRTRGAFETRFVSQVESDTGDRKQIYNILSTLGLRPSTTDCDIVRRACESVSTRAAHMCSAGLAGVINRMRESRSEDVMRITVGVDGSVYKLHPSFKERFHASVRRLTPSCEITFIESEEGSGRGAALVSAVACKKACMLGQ
Protocol: Glucokinase In Vitro Assay Protocol: Glucokinase (GK) was assayed by coupling the production of glucose-6-phosphate to the generation of NADH with glucose-6-phosphate dehydrogenase (G6PDH, 0.75-1 kunits/mg; Boehringer Mannheim, Indianapolis, Ind.) from Leuconostoc mesenteroides as the coupling enzyme (Scheme 2).
Recombinant human liver GK1 was expressed in E. coli as a glutathione S-transferase fusion protein (GST-GK) [Liang et al, 1995] and was purified by chromatography over a glutathione-Sepharose 4B affinity column using the procedure provided by the manufacturer (Amersham Pharmacia Biotech, Piscataway, N.J.).
The assay was conducted at 30° C. in a flat bottom 96-well tissue culture plate from Costar (Cambridge, Mass.) with a final incubation volume of 120 μL. The incubation reaction contained the following: 25 mM Hepes buffer (pH 7.1), 25 mM KCl, 5 mM D-glucose, 1 mM ATP, 1.8 mM NAD, 2 mM MgCl2, 1 μM sorbitol-6-phosphate, 1 mM dithiothreitol, test drug or 10% dimethylsulfoxide, ˜7 units/ml G6PDH, and GK (see below). All organic reagents were >98% pure and were from Boehringer Mannheim with the exceptions of D-glucose and Hepes which were from Sigma Chemical Co, St Louis, Mo. Test compounds were dissolved in dimethylsulfoxide and were added to the incubation reaction minus GST-GK in a volume of 12 μL to yield a final dimethylsulfoxide concentration of 10%. This mix was pre-incubated in the temperature controlled chamber of a SPECTRAmax 250 microplate spectrophotometer (Molecular Devices Corporation, Sunnyvale, Calif.) for 10 minutes to allow temperature equilibrium and then the reaction was started by the addition of 20 μL GST-GK.
After addition of enzyme, the increase in optical density (OD) at 340 nm was monitored spectrophotometrically to determine the rate of change (OD340 per min). The GK activity (OD340/min) in control wells (10% dimethylsulfoxide minus GK activators) was compared with the activity in wells containing test GK activators, and the concentration of activator that produced a 50% increase in the activity of GK, i.e., the SC1.5, was calculated.

SMILES	SC1.5 [µM]
FC(F)(F)c1ccc(C(CC2CCOCC2)c2cc3cccnc3[nH]2)cc1 (stereo not shown) [Example 68, 2-[2-(Tetrahydro-pyran-4-yl)-1-(4-trifluoromethyl-phenyl)-ethyl]-1H-pyrrolo[2,3-b]pyridine]	0.888
CC(C)c1ccc(C(CC2CCCC2)c2cc3cc(F)cnc3[nH]2)cc1 (stereo not shown) [Example 121, 2-[2-Cyclopentyl-1-(4-isopropyl-phenyl)-ethyl]-5-fluoro-1H-pyrrolo[2,3-b]pyridine]	0.458
CS(=O)(=O)c1ccc(/C(=C\C2CCCC2)c2cc3cc(F)cnc3[nH]2)cc1 [Example 116, 2-[(E)-2-cyclopentyl-1-(4-methanesulfonyl-phenyl)-vinyl]-5-fluoro-1H-pyrrolo[2,3-b]pyridine]	0.009
CNC(=O)c1cnc2[nH]c(C(CC(C)C)c3ccc(S(C)(=O)=O)cc3)cc2c1 (stereo not shown) [Example 2, 2-[1-(4-Methanesulfonyl-phenyl)-3-methyl-butyl]-1H-pyrrolo[2,3-b]pyridin-5-carboxylic acid methylamide]	11.3
CC(C)(O)c1ccc(C(CC2CCCC2)c2cc3cccnc3[nH]2)cc1 (stereo not shown) [Example 81, 2-{4-[2-Cyclopentyl-1-(1H-pyrrolo[2,3-b]pyridin-2-yl)-ethyl]-phenyl}-propan-2-ol]	2.3
Cc1cnc2[nH]c(C(CC3CCCC3)c3ccc(S(C)(=O)=O)cc3)cc2c1 (stereo not shown) [Example 128, 2-[2-Cyclopentyl-1-(4-methanesulfonyl-phenyl)-ethyl]-5-methyl-1H-pyrrolo[2,3-b]pyridine]	0.85
CS(=O)(=O)c1ccc([C@@H](CC2CCCC2)c2cc3cc(C(F)(F)F)cnc3[nH]2)cc1 (single isomer, unassigned) [Example 127]	0.607
CN(C)CCOc1cnc2[nH]c(C(CC3CCCC3)c3ccc(S(C)(=O)=O)cc3)cc2c1 (stereo not shown) [Example 17, (2-{2-[2-Cyclopentyl-1-(4-methanesulfonyl-phenyl)-ethyl]-1H-pyrrolo[2,3-b]pyridin-5-yloxy}-ethyl)-dimethyl-amine]	3.1
CCOC(CC1CCCC1)(c1ccc(S(C)(=O)=O)cc1)c1cc2cccnc2[nH]1 (single isomer, unassigned) [Example 87, 2-[2-Cyclopentyl-1-ethoxy-1-(4-methanesulfonyl-phenyl)-ethyl]-1H-pyrrolo[2,3-b]pyridine]	11.0
c1cncc(C(CC2CCCC2)c2cc3cccnc3[nH]2)c1 (stereo not shown) [Example 110, 2-(2-Cyclopentyl-1-pyridin-3-yl-ethyl)-1H-pyrrolo[2,3-b]pyridine]	14.1
CN(C)CCS(=O)(=O)c1ccc(C(CC2CCCC2)c2cc3cccnc3[nH]2)cc1 (stereo not shown) [Example 92, (2-{4-[2-Cyclopentyl-1-(1H-pyrrolo[2,3-b]pyridin-2-yl)-ethyl]-benzenesulfonyl}-ethyl)-dimethyl-amine]	1.1
CS(=O)(=O)c1ccc(C(CC2CCOCC2)c2cc3cc(F)cnc3[nH]2)cc1 (stereo not shown) [Example 123, 5-Fluoro-2-[1-(4-methanesulfonyl-phenyl)-2-(tetrahydro-pyran-4-yl)-ethyl]-1H-pyrrolo[2,3-b]pyridine]	0.47
CC(C)(O)c1ccc(C(CC2CCCC2)c2cc3cc(C(=O)O)cnc3[nH]2)cc1F (stereo not shown) [Example 57, 2-{2-Cyclopentyl-1-[3-fluoro-4-(1-hydroxy-1-methyl-ethyl)-phenyl]-ethyl}-1H-pyrrolo[2,3-b]pyridin-5-carboxylic acid]	22.3
Cc1cc(C)cc(C(CC2CCCC2)c2cc3cccnc3[nH]2)c1 (stereo not shown) [Example 66, 2-[2-Cyclopentyl-1-(3.5-dimethyl-phenyl)-ethyl]-1H-pyrrolo[2,3-b]pyridine]	4.2
CC(C)CC(c1ccc(S(C)(=O)=O)cc1)c1cc2cc(F)cnc2[nH]1 (stereo not shown) [Example 99, 5-Fluoro-2-[1-(4-methanesulfonyl-phenyl)-3-methyl-butyl]-1H-pyrrolo[2,3-b]pyridine]	0.394

Further lines, results first:

SC1.5 [µM]	SMILES
2.3	CS(=O)(=O)c1ccc(C(CC2CCCO2)c2cc3cccnc3[nH]2)cc1 (stereo not shown) [Example 71, 2-[1-(4-Methanesulfonyl-phenyl)-2-(tetrahydro-furan-2-yl)-ethyl]-1H-pyrrolo[2,3-b]pyridine]
3.4	CS(=O)(=O)c1ccc([C@@H](CC2CCCC2)c2cc3cc(C(=O)O)cnc3[nH]2)cc1 (single isomer, unassigned) [Example 56]
4.3	COCCCc1cnc2[nH]c(C(CC3CCCC3)c3ccc(S(C)(=O)=O)cc3)cc2c1 (stereo not shown) [Example 44, 2-[2-Cyclopentyl-1-(4-methanesulfonyl-phenyl)-ethyl]-5-(3-methoxy-propyl)-1H-pyrrolo[2,3-b]pyridine]
0.144	CC(C)(O)c1ccc([C@@H](CC2CCCC2)c2cc3cccnc3[nH]2)cc1F (single isomer, unassigned) [Example 96]
1.4	N#Cc1ccc(C(CC2CCCC2)c2cc3cccnc3[nH]2)cc1 (stereo not shown) [Example 43, 4-[2-Cyclopentyl-1-(1H-pyrrolo[2,3-b]pyridin-2-yl)-ethyl]-benzonitrile]
0.18	CC(C)(O)c1ccc(C(CC2CCCC2)c2cc3cc(F)cnc3[nH]2)cc1F (stereo not shown) [Example 103, 2-{4-[2-Cyclopentyl-1-(5-fluoro-1H-pyrrolo[2,3-b]pyridin-2-yl)-ethyl]-2-fluoro-phenyl}-propan-2-ol]
13.3	COc1cnc2[nH]c(C(O)(CC3CCC3)c3ccc(S(C)(=O)=O)c(C(F)(F)F)c3)cc2c1 (stereo not shown) [Example 72, 2-Cyclobutyl-1-(4-methanesulfonyl-3-trifluoromethyl-phenyl)-1-(5-methoxy-1H-pyrrolo[2,3-b]pyridin-2-yl)-ethanol]
2.3	CC(C)(O)c1ccc(C(CC2CCCC2)c2cc3cccnc3[nH]2)c(F)c1 (stereo not shown) [Example 94, 2-{4-[2-Cyclopentyl-1-(1H-pyrrolo[2,3-b]pyridin-2-yl)-ethyl]-3-fluoro-phenyl}-propan-2-ol]
0.587	CS(=O)(=O)c1ccc(C(CC2CCCC2)c2cc3cccnc3[nH]2)nc1 (stereo not shown) [Example 112, 2-[2-Cyclopentyl-1-(5-methanesulfonyl-pyridin-2-yl)-ethyl]-1H-pyrrolo[2,3-b]pyridine]
0.719	CC(C)Oc1cnc2[nH]c(C(CC3CCCC3)c3ccc(S(C)(=O)=O)cc3)cc2c1 (stereo not shown) [Example 18, 2-[2-Cyclopentyl-1-(4-methanesulfonyl-phenyl)-ethyl]-5-isopropoxy-1H-pyrrolo[2,3-b]pyridine]
7.3	CS(=O)(=O)c1ccc(C(CC2CCCC2)c2cc3cc(CC(O)CO)cnc3[nH]2)cc1 (stereo not shown) [Example 11, 3-{2-[2-Cyclopentyl-1-(4-methanesulfonyl-phenyl)-ethyl]-1H-pyrrolo[2,3-b]pyridin-5-yl}-propane-1,2-diol]
3.4	CS(=O)(=O)c1ccc(C(CC2CCCC2)c2cc3cc(CCO)cnc3[nH]2)cc1 (stereo not shown) [Example 36, 2-{2-[2-Cyclopentyl-1-(4-methanesulfonyl-phenyl)-ethyl]-1H-pyrrolo[2,3-b]pyridin-5-yl}-ethanol]
2.5	CS(=O)(=O)Nc1ccc(C(CC2CCCC2)c2cc3cccnc3[nH]2)cc1 (stereo not shown) [Example 75, N-{4-[2-Cyclopentyl-1-(1H-pyrrolo[2,3-b]pyridin-2-yl)-ethyl]-phenyl}-methanesulfonamide]
3.4	CS(=O)(=O)c1ccc(C(CC2CCCC2)c2cc3cc(CO)cnc3[nH]2)cc1 (stereo not shown) [Example 8, {2-[2-Cyclopentyl-1-(4-methanesulfonyl-phenyl)-ethyl]-1H-pyrrolo[2,3-b]pyridin-5-yl}-methanol]
2.2	CC(C)(O)c1ccc(C(CC2CCOCC2)c2cc3cc(F)cnc3[nH]2)cc1F (stereo not shown) [Example 97, 2-{2-Fluoro-4-[1-(5-fluoro-1H-pyrrolo[2,3-b]pyridin-2-yl)-2-(tetrahydro-pyran-4-yl)-ethyl]-phenyl}-propan-2-ol]
0.73	CCOCCS(=O)(=O)c1ccc(C(CC2CCCC2)c2cc3cccnc3[nH]2)cc1 (stereo not shown) [Example 90, 2-{2-Cyclopentyl-1-[4-(2-ethoxy-ethanesulfonyl)-phenyl]-ethyl}-1H-pyrrolo[2,3-b]pyridine]
